Here are results for 32 compounds from PubChem BioAssay (NCI).

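How tested: cells in 96-well plates exposed to compound for 48 hours at five concentrations. At the GI50, growth is halved. Definition used: TGI = concentration required for complete inhibition of growth.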 A value given as a limit tells only on which side of the number the result lay.

This assay has as its system HS 578T breast. Put plainly: NCI anticancer screen, dose series, 48 h.

Consider `COc1ccc(-c2nn3c(-c4cc(F)c(Cl)cc4Cl)nnc3s2)cc1`, for which the GI50 was 43.3 µM and the TGI is more than 100 µM.
Regarding `Cc1ccc(N=Nc2c(O)c(C(=O)O)cc3ccccc23)cc1C`, the TGI was more than 100 µM.
`CCCCCCCCCCCCCCCCN1CC2CCCCC2C1` (configuration not stated): the GI50 is 11.8 µM and the TGI is 30.5 µM.
`CCc1nccc2c1nc(-c1nonc1N)n2CC`: the GI50 is more than 19.7 µM and the TGI is more than 25 µM.
Turning to `COc1ccc2c(c1)/C(=C\c1c(C)nc3sccn13)C(=O)N2`, the GI50 is 0.224 µM and the TGI is 15.2 µM.
In the case of `Oc1cccc2ccc(N/N=C/c3cc(CN4CCCCC4)c(O)c4ncccc34)nc12`, the GI50 is 0.147 µM and the TGI was 29.4 µM.
Take `COc1cc(C2CC(c3ccc4c(c3)OCO4)=NN2C=O)cc(OC)c1OC` (configuration not stated): the GI50 is 2.43 µM and the TGI is 28.5 µM.
On to `CCOC(=O)c1cc(NS(=O)(=O)c2ccccc2)cc(C(=O)OCC)c1`, for which the GI50 was more than 100 µM and the TGI is more than 100 µM.
As for `COc1ccc2sc3c(NCCCN(C)C)nc4ccccc4c3c(=O)c2c1`, the GI50 was 1.49 µM and the TGI stood at 3.26 µM.
As to `O=C(NCCO)Nc1ccc(-c2nc(N3CCOCC3)c3cccn3n2)cc1`, the GI50 is 0.0889 µM and the TGI amounted to 0.836 µM.
On the same counts, the results for `CC#C[C@]1(O)CC[C@H]2[C@@H]3CCC4=CC(=O)CCC4=C3[C@@H](c3ccc4c(c3)OCO4)C[C@@]21C` are 101 µM and 537 µM.
Take `C=CCOc1cccc(/C=C2\SC(=Nc3ccc(O)cc3)NC2=O)c1`: the GI50 is 0.414 µM and the TGI came out at 12.4 µM.
Consider `Cc1cc(N(CCCl)CCCl)ccc1C=Nc1ccc(-c2csc(Cc3ccccc3)n2)cc1`, for which the GI50 was 20.3 µM and the TGI stood at 83.7 µM.
On to `Cn1cccc1-c1cc(-c2cccs2)nc(N)c1C#N`, for which the GI50 was more than 100 µM and the TGI was more than 100 µM.
Consider `O=c1cc(-c2ccccc2)[nH]c2ccccc12`, for which the GI50 was 0.458 µM and the TGI is more than 23.2 µM.
Take `COc1ccc(-c2n/c(=C\c3c(O)[nH]c4ccc(OC)cc34)cc3c2=Nc2ccccc2-3)cc1`: the GI50 is 1.94 µM and the TGI was found to be 4.82 µM.
Turning to `CC1(C)CC(=O)c2c(C(F)(F)F)nn(-c3ccc(C(N)=O)c(NC4CCC(OC(=O)CN)CC4)c3)c2C1` (configuration not stated), the GI50 is 9.73 µM and the TGI is more than 100 µM.
Consider `COc1ccc(-c2nc3sc4c(c3c(=O)[nH]2)CCCCCC4)cc1`, for which the GI50 was 1.78 µM and the TGI was more than 33.2 µM.
With `COc1ccc(OC)c(/C=C2\SC(=S)NC2=O)c1`, the GI50 is 20.7 µM and the TGI was 55.5 µM.
Turning to `Cc1ccc(-c2cn3ccnc3c(-c3ccc(Cl)cc3)n2)cc1`, the GI50 is 0.115 µM and the TGI was 9.39 µM.
On the same counts, the results for `Nc1nc2c(c3ncncc13)C(c1cccc(C(F)(F)F)c1)Cc1ncncc1-2` (configuration not stated) are 4.71 µM and 45.9 µM.
On to `COc1cc2c(c(OC)c1)C1c3ccccc3NC(=O)N1CC2` (configuration not stated), for which the GI50 is 6.3 µM and the TGI is more than 100 µM.
Regarding `COc1ccc(-c2csc(N(C(=O)N3CCN(c4cc5c(cc4F)c(=O)c(C(=O)O)cn5C4CC4)CC3)c3ccccc3)n2)cc1`, the GI50 was 1.48 µM and the TGI was more than 100 µM.
With `Nc1ccccc1C#C/C=C\C#Cc1cccs1`, the GI50 was 15.2 µM and the TGI amounted to 41.8 µM.
As to `CCCC(C)c1cc(Cc2cc(Cl)cc(Cl)c2O)c(O)c(Cc2cc(Cl)cc(Cl)c2O)c1` (configuration not stated), the GI50 is 0.836 µM and the TGI is 8.32 µM.
`COC(=O)[C@@]1(C)CC[C@]2(C)CC[C@]3(C)C4=CC=C5C(=CC(=O)C(O)=C5C)[C@]4(C)[C@@H](O)C[C@@]3(C)[C@@H]2C1`: the GI50 is 15.1 µM and the TGI is 38 µM.
For `O=C1c2cccnc2C(=O)c2nc3cc(N4CCN(C5CC5)CC4)ccc3nc21`, the GI50 was 0.37 µM and the TGI came to 3.18 µM.
Take `Cc1ccccc1[P+](Cc1ccccc1)(c1ccccc1)c1ccccc1`: the GI50 is 1.83 µM and the TGI is 11.7 µM.
Consider `CN(C)CCNc1c2c(c(NCCN(C)C)c3[nH]ccc13)C(=O)c1ccccc1C2=O`, for which the GI50 is 2.74 µM and the TGI came out at 9.26 µM.
`O=C1CC(c2ccc(O)cc2)C2(O1)C(=O)OC(C(O)CO)C2O` (configuration not stated) displayed a TGI of more than 100 µM.
On to `OC(c1cc(-c2ccccc2)nc2ccc(Cl)cc12)C1CCCCN1` (configuration not stated), for which the GI50 was 3.37 µM and the TGI is 11.7 µM.
For `COc1ccc(/C(C#N)=C/c2ccccc2OC)cc1`, in that order: 14.3 µM and more than 100 µM.
